Legend:
[1] = system: primary human erythroid cells; assay: Proliferation and viability of differentiating erythroid cells, trypan blue count; type: cell-based; conditions: day 4 through day 14
Description: (§1) Cryopreserved vials of purified human CD34+ cells, which were isolated from peripheral blood of healthy donors after mobilization with granulocyte colony-stimulating factor, were purchased from the Fred Hutchinson Cancer Research Center. The cells were grown and differentiated ex vivo into the erythroid lineage in 14 days by a two-phase culture method reported previously (Cui et al., 2011, Mol. Cell. Biol., 31:3298-3311; Giarratana et al., 2005, Nat. Biotechnol., 23:69-74). […] Cell morphology was examined by staining cytospins with a Wright-Giemsa stain (Sigma-Aldrich). Hemoglobin synthesis was examined by acid benzidine staining as previously described (Orkin et al., 1975, PNAS USA, 72:98-102).
(§2) A pLKO.1-puro lentiviral vector to express the LSD1 shRNA and a puromycin resistance gene was purchased from Sigma-Aldrich (TRCN0000046070), and the control empty vector was generated by removing a region (between EcoRI and NdeI sites) containing the hairpin sequence. Lentiviral particles were generated by transfecting the vectors into a packaging cell line. Cells were exposed to the viruses on day 4 of the culture for 24 hours, and then to 1 μg/ml puromycin on day 6 through day 14 for selection of infected cells.

[2] = system: primary human erythroid cells; assay: Hemoglobin analysis by HPLC, HbF synthesis; type: cell-based; conditions: day 14, average, untreated control 4.6%
Description: as §1
Cells were lysed and analyzed for hemoglobin composition by the B10-Rad Variant II Hemoglobin Testing System equipped with an ion-exchange HPLC column (Hercules). Averages of three to five biological replicates are presented.
as §2

[3] = system: primary human erythroid cells; conditions: 0.5, 1.5 or 5 μM
Description: as §1
For cell surface marker analysis, cells were stained with phycoerythrin (PE)-Cy7-conjugated anti-CD34 (eBioscience), PE-conjugated anti-CD71 (eBioscience), and PE-Cy5-conjugated antiglycophorin A (BD Biosciences) antibodies. For cytoplasmic HbF analysis, cells were fixed in 0.05% glutaraldehyde for 10 min, permeabilized in 0.1% Triton X-100 for 5 min, and then stained with allophycocyanin-conjugated anti-HbF antibody (Invitrogen). Stained cells were analyzed with the FACSCanto II (BD Biosciences).

[4] = system: fetal gamma-globin mRNA; type: cell-based, human; conditions: TC treatment, by day 14
Description: as §1
Expression of the genes for human gamma- and beta-globins, LSD1, mouse alpha-globin, and 18S rRNA was determined by RT-qPCR assay as described previously (Cui et al., supra). The abundance of each transcript was calculated based on the threshold cycle value and the amplification efficiency, experimentally determined for each primer pair, and then normalized to the abundance of 18S rRNA transcript as an internal control. All the primer pairs except for 18S rRNA were designed to span introns. […]

[5] = system: H3K4 demethylase activity of LSD1; conditions: differentiating erythroid cells, normalized to untreated cells
Description: as §1

[6] = system: gamma-globin promoter; conditions: day 11
Description: as §1

[7] = system: Human beta-globin gene; conditions: 3 or 10 mg/kg per day s.c., 5 days a week for 4 weeks
Description: (§3) Expression of the genes for human gamma- and beta-globins, LSD1, mouse alpha-globin, and 18S rRNA was determined by RT-qPCR assay as described previously (Cui et al., supra). The abundance of each transcript was calculated based on the threshold cycle value and the amplification efficiency, experimentally determined for each primer pair, and then normalized to the abundance of 18S rRNA transcript as an internal control. All the primer pairs except for 18S rRNA were designed to span introns.
(§4) Control mice were injected with saline only. After 4 weeks of injections, bone marrow cells were harvested for RTqPCR analysis for expression of the genes for human gamma- and beta-globins, and mouse alpha-globin as an internal control. Three or four mice were used for each experimental condition.

[8] = system: human gamma-globin gene; conditions: 3 or 10 mg/kg per day s.c., 5 days a week for 4 weeks; dose dependent
Description: as §3, §4

[9] = 3 or 10 mg/kg per day s.c., 5 days a week for 4 weeks
Description: as §4

N[C@@H]1C[C@H]1c1ccccc1 (racemic) [TC, Tranylcypromine]
cell proliferation ([1]; 0.5 μM): did not affect | cell viability ([1]; 0.5 μM): did not affect | cell proliferation ([1]; 1.5 μM): did not affect | cell viability ([1]; 1.5 μM): did not affect | cell proliferation ([1]; 5 μM): reduced cell proliferation | cell viability ([1]; 5 μM): without affecting viability | HbF, % of total hemoglobin (HPLC) ([2]; 0.5 μM): 13% | HbF, % of total hemoglobin (HPLC) ([2]; 1.5 μM): 20% | HbF, % of total hemoglobin (HPLC) ([2]; 5 μM): 31% | cell population positive for both CD71 and GPA [3]: slight to moderate reduction | HbF inductive effect by flow cytometry ([3]; day 14): both pancellular and dose-dependent | induction of fetal gamma-globin mRNA [4]: up to 9.4 fold | global H3K4 dimethylation [5]: enhanced global H3K4 dimethylation in a dose dependent manner | H3K4 dimethylation at the gamma-globin promoter [6]: enhanced H3K4 dimethylation | human beta-globin gene expression in bone marrow cells [7]: not significantly affected | induction of human gamma-globin gene expression in bone marrow cells vs control mice [8]: about 3 fold | activity of the mice (anecdotal observation) [9]: much more active | signs of toxic effects on hematological or other systems [9]: did not exhibit any signs of toxic effects | tolerability [9]: well tolerated

Source: US8975293B2, “Epigenetic co-repressors of the gamma-globin gene and methods of using same” (Regents of the University of Michigan, priority 2011, dated 2015)
